Results published in US20100279997A1, “ANALGESIC THAT BINDS FILAMIN A” (priority 2009, published 2010).

Biological target: T1, μ opiate receptor (MOR) (Rattus norvegicus, UniProt P33535)
T1 construct: from tissue; host or cells: striatal tissue (membrane preparation)
Experiment: MOR agonist activity, [35S]GTPγS binding assay using striatal membranes
Type: biochemical
Details: for [35S]GTPγS binding to Gαo, FLNA-binding compound as agonist 0.1 μM: 0.1 μM compound; for [35S]GTPγS binding to Gαo, FLNA-binding compound as agonist 0.1 μM / [35S]GTPγS binding to Gαo, FLNA-binding compound as agonist 1 μM: striatal membranes; for [35S]GTPγS binding to Gαo, FLNA-binding compound as agonist 1 μM + BFNA: 1 μM compound + 1 μM β-funaltrexamine; for [35S]GTPγS binding to Gαo, FLNA-binding compound as agonist 1 μM: 1 μM compound; for % DAMGO + BFNA: relative to DAMGO + BFNA; for % DAMGO (0.1 μM) / % DAMGO (1 μM): relative to DAMGO
Protocol: To assess the μ opiate receptor (MOR) agonist activity of positive compounds from the FLNA screening, compounds were tested in a [^35S]GTPγS binding assay using striatal membranes.
Striatal tissue was homogenized in 10 volumes of ice cold 25 mM HEPES buffer, pH 7.4, which contained 1 mM EGTA, 100 mM sucrose, 50 μg/ml leupeptin, 0.04 mM PMSF, 2 μg/ml soybean trypsin inhibitor and 0.2% 2-mercaptoethanol. The homogenates were centrifuged at 800×g for 5 minutes and the supernatants were centrifuged at 49,000×g for 20 minutes. The resulting pellets were suspended in 10 volume of reaction buffer, which contained 25 mM HEPES, pH 7.5, 100 mM NaCl, 50 μg/ml leupeptin, 2 μg/ml soybean trypsin inhibitor, 0.04 mM PMSF and 0.02% […].
The resultant striatal membrane preparation (200 μg) was admixed and maintained (incubated) at 30° C. for 5 minutes in reaction buffer as above that additionally contained 1 mM MgCl2 and 0.5 nM [^35S]GTPγS (0.1 μCi/assay, PerkinElmer Life and Analytical Sciences) in a total volume of 250 μl and continued for 5 minutes in the absence or presence of 0.1-10 μM of an assayed compound of interest. The reaction was terminated by dilution with 750 μl of ice-cold reaction buffer that contained 20 mM MgCl2 and 1 mM EGTA and immediate centrifugation at 16,000×g for 5 minutes.
The resulting pellet was solubilized by sonicating for 10 seconds in 0.5 ml of immunoprecipitation buffer containing 0.5% digitonin, 0.2% sodium cholate and 0.5% NP-40. Normal rabbit serum (1 μl) was added to 1 ml of lysate and incubated at 25° C. for 30 minutes. Nonspecific immune complexes were removed by incubation with 25 μl of protein A/G-conjugated agarose beads at 25° C. for 30 minutes followed by centrifugation at 5,000×g at 4° C. for 5 minutes. The supernatant was divided and separately incubated at 25° C. for 30 minutes with antibodies raised against Gao proteins (1:1,000 dilutions).
The immunocomplexes so formed were collected by incubation at 25° C. for 30 minutes with 40 μl of agarose-conjugated protein A/G beads and centrifugation at 5,000×g at 4° C. for 5 minutes. The pellet was washed and suspended in buffer containing 50 mM Tris-HCl, pH 8.0, and 1% NP-40. The radioactivity in the suspension was determined by liquid scintillation spectrometry. […] DAMGO (H-Tyr-D-Ala-Gly-N-MePhe-Gly-OH; 1 or 10 μM) was used as a positive control.

T1 sequence (P33535 whole entry): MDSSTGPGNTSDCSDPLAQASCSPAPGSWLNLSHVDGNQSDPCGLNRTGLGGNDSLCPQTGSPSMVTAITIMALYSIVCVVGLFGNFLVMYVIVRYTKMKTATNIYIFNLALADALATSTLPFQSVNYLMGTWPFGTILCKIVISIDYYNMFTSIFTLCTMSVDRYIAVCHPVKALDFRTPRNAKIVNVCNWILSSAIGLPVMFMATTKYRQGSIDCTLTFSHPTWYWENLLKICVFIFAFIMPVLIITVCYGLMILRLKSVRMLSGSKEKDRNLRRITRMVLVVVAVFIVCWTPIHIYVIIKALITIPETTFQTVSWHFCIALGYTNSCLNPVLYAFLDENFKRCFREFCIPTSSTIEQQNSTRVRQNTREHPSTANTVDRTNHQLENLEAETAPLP

SMILES	[35S]GTPγS binding to Gαo, FLNA-binding compound as agonist 0.1 μM [%]	[35S]GTPγS binding to Gαo, FLNA-binding compound as agonist 1 μM + BFNA [%]	[35S]GTPγS binding to Gαo, FLNA-binding compound as agonist 1 μM [%]	% DAMGO + BFNA [%]	% DAMGO (0.1 μM) [%]	% DAMGO (1 μM) [%]
CC1CCC(C(C)C)C(OCC(O)CN2CC(C)OC(C)C2)C1 (stereo not drawn) [Compound A0032-1]	187.4	224.5	324.5	303.8	95.5	117.6
CC1CCC(C(C)C)C(OCC(CN2CC(C)OC(C)C2)NCc2ccccc2)C1 (stereo not drawn) [Compound A0033]	155.8	118.2	254.6			
CC1CCC(C(C)C)C(OCC(O)CN(C(C)C)C(C)C)C1 (stereo not drawn) [Compound A0037]	177.9	104.6	236.2	141.5	90.7	85.6
OC(COc1cccc(F)c1)CN1CCc2ccccc2C1 (stereo not drawn) [Compound A0055]	89.8	33.5	195.2			
CC1CCC(C(C)C)C(OCC(O)CN2CCN(CCN3CCCCC3)CC2)C1 (stereo not drawn) [Compound A0031]	178.2	150.9	297.0			
CC1CCC(C(C)C)C(OCC(O)CN2CCCCC2=O)C1 (stereo not drawn) [Compound A0036]	144.1	63.2	167.5			
COc1c2c(cc3c1OCO3)CCN(CC(O)COC1CC(C)CCC1C(C)C)C2 (stereo not drawn) [Compound A0061]	110.3	10.7	197.1			
OC(COc1ccc(Br)c(F)c1)CN1CCCCC1 (stereo not drawn) [Compound A0058]	70.7	59.9	244.3			
CC1CN(CC(O)COC2CCCCC2)CC(C)O1 (stereo not drawn) [Compound A0017]	161.9	65.2	246.0			
OC(COc1cccc(C(F)(F)F)c1)CN1CCc2ccccc2C1 (stereo not drawn) [Compound A0054]	74.9	114.1	159.2			
CC(=O)c1ccc(OCC(O)CN2CC(C)OC(C)C2)cc1 (stereo not drawn) [Compound A0044]	176.2	134.7	209.1			
CC1CCC(C(C)C)C(OCC(O)CN2CCCC2=O)C1 (stereo not drawn) [Compound A0035]	120.6	88.6	158.8			
Cc1ccc(C(C)C)c(OCC(O)CN2CC(C)OC(C)C2)c1 (stereo not drawn) [Compound A0028]	143.6	116.7	187.7			
CC1CCN(CC(O)COC2CC(C)CCC2C(C)C)CC1 (stereo not drawn) [Compound A0006]	170.0	18.2	190.9			
CC1CCC(C(C)C)C(OCC(O)CN2CCCCCCC2)C1 (stereo not drawn) [Compound A0014]	147.0	140.8	174.9			
CC1CN(CC(O)COc2ccccc2)CC(C)O1 (stereo not drawn) [Compound A0025]	58.6	52.2	138.7			

SMILES	[35S]GTPγS binding to Gαo, FLNA-binding compound as agonist 0.1 μM [%]	[35S]GTPγS binding to Gαo, FLNA-binding compound as agonist 1 μM + BFNA [%]	[35S]GTPγS binding to Gαo, FLNA-binding compound as agonist 1 μM [%]	% DAMGO + BFNA [%]	% DAMGO (0.1 μM) [%]	% DAMGO (1 μM) [%]
CC1CCC(C(C)C)C(OCC(O)CN2CCc3ccccc3C2)C1 (stereo not drawn) [Compound A0040]	46.1	16.7	149.0			
CC1CN(CC(O)COc2cccc(N(C)C)c2)CC(C)O1 (stereo not drawn) [Compound A0042]	147.5	89.5	233.1			
COc1ccc(OCC(O)Cn2ccc3ccccc32)cc1 (stereo not drawn) [Compound A0077]	300.1	103.5	334.7	470.5	170.5	132.3
CN(C)c1cccc(OCC(O)CN2CCc3ccccc3C2)c1 (stereo not drawn) [Compound A0050]	151.0	81.0	189.3			
CC1CCC(C(C)C)C(OCC(O)CN2CCCCCC2)C1 (stereo not drawn) [Compound A0013]	102.1	86.1	164.8			
CC1CCC(C(C)C)C(OCC(O)CN2CCSCC2)C1 (stereo not drawn) [Compound A0003]	176.8	17.1	276.0			
CC1CN(CC(O)COc2ccccc2Br)CC(C)O1 (stereo not drawn) [Compound A0043]	183.3	89.1	223.8			
CC1CCC(C(C)C)C(OCC(O)CN2CCCC2)C1 (stereo not drawn) [Compound A0001]	94.3	22.2	181.7			
CC1CCC(C(C)C)C(OCC(O)CN2CCN(CCCN3CCOCC3)CC2)C1 (stereo not drawn) [Compound A0026]	140.7	120.8	179.8			
CC1CCC(C(C)C)C(OCC(O)CN2CCCN(C)CC2)C1 (stereo not drawn) [Compound A0010]	277.2	190.3	319.0			
CC1CCC(C(C)C)C(OCC(O)CN2CCCCC2)C1 (stereo not drawn) [Compound A0005]	179.7	23.5	239.2			
CC1CN(CC(O)COc2cc(F)cc(F)c2)CC(C)O1 (stereo not drawn) [Compound A0046]	257.5	140.0	354.1	189.4	131.2	128.3
CCN(CC)CC(O)COC1CC(C)CCC1C(C)C (stereo not drawn) [Compound A0032]	226.9	133.0	257.8			
CC1CN(CC(O)COc2ccc(Br)c(Cl)c2)CC(C)O1 (stereo not drawn) [Compound A0045]	143.9	99.2	274.2			
OC(COc1ccc(Br)c(F)c1)CN1CCSCC1 (stereo not drawn) [Compound A0059]	99.2	85.7	129.9			
CC1CCC(C(C)C)C(OCC(O)CN2CC(C)CC(C)C2)C1 (stereo not drawn) [Compound A0008]	163.8	133.9	235.0			
